Several values for one entry are separate records, joined by “and”; a condition that tells them apart may be missing. Equal entries are not always repeated.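 Test compounds were applied to cells in 96-well plates for 48 hours at 5 doses. GI50: concentration for 50% inhibition of growth. TGI: concentration producing complete growth inhibition.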
Assays:
Test in all cases: NCI-60 cell line screen, 48 h
[1] = tested on: A498 renal
[2] = tested on: DMS 273 small cell lung
[3] = tested on: KM20L2 colon
[4] = tested on: TK-10 renal
[5] = tested on: DLD-1 colon
[6] = tested on: HOP-92 NSCLC
[7] = tested on: M19-MEL melanoma
[8] = tested on: SK-MEL-5 melanoma
[9] = tested on: MDA-MB-435
[10] = tested on: PC-3 prostate

Row | SMILES | TGI [1] | TGI [2] [µM] | TGI [3] [µM] | TGI [4] | TGI [5] [µM] | TGI [6] | TGI [7] [µM] | TGI [8] [µM] | GI50 [5] [µM] | GI50 [2] | GI50 [3] [µM] | GI50 [8] [µM] | GI50 [4] [µM] | TGI [9] [µM] | TGI [10] [µM] | GI50 [1] | GI50 [6] [µM] | GI50 [7] [µM]
1 | O=[N+]([O-])C(=C1c2ccccc2-c2ccccc21)[N+](=O)[O-] | > 100 µM | > 10 | > 100 | > 100 µM |  |  |  |  |  |  |  |  |  |  |  |  |  | 
2 | N/N=C1\C(=O)N(c2ccc(Cl)c(Cl)c2)C(=O)C1C(=O)Nc1ccc(Cl)c(Cl)c1 (configuration not stated) | > 100 µM |  | > 100 | > 100 µM | > 100 | > 100 µM | > 100 | 69.6 |  |  |  |  |  |  |  |  |  | 
3 | NNC(=O)C(=O)N/N=C1\CCCC1C(=O)CCC(=O)Nc1cccc(Cl)c1 (configuration not stated) |  |  | > 100 | > 100 µM | > 100 | > 100 µM | > 100 | > 100 |  |  |  |  |  |  |  |  |  | 
4 | Nc1ncnc2c1ncn2C1(CO)OC(CO)C(O)C1O (configuration not stated) | > 100 µM | > 100 | > 100 | > 100 µM | > 100 | > 100 µM |  | > 100 |  |  |  |  |  |  |  |  |  | 
5 | Cc1ccc(C)c(NC(=O)C(=O)C(C2C(C)CC(=O)C2CC(=O)O)[N+](=O)[O-])c1 (configuration not stated) | > 100 µM |  | > 100 | > 100 µM | > 100 | > 100 µM | > 100 | > 100 |  |  |  |  |  |  |  |  |  | 
6 | CCCOC(=O)C1C(c2ccc(OC)cc2)NC(c2ccc(OC)cc2)C(C(=O)OCCC)S1(=O)=O (configuration not stated) | > 100 µM | > 100 | > 100 | > 100 µM | > 100 |  |  | > 100 | > 100 | > 100 µM | > 100 | > 100 | > 100 |  |  |  |  | 
7 | Oc1ccc(Br)cc1C=Nc1ccc(Oc2ccc(N=Cc3cc(Br)ccc3O)cc2)cc1 | > 19.6 µM | > 19.6 | > 19.6 | > 19.6 µM | > 19.6 | > 19.6 µM | > 19.6 | > 19.6 |  |  |  |  |  |  |  |  |  | 
8 | O=C1/C(=C/c2ccccc2)CN(C(=O)/C=C/c2ccccc2)C/C1=C\c1ccccc1 | 92 µM | > 100 | > 46.2 | 65.3 µM | 11.3 | 62.2 µM | > 22.9 | > 35 |  |  |  |  |  | 3.74 | 4.33 |  |  | 
9 | COc1ccc(-c2cc(-c3ccco3)c(C#N)c(=O)n2C2OC(COC(C)=O)C(OC(C)=O)C(OC(C)=O)C2OC(C)=O)cc1 (configuration not stated) | > 100 µM and 75.8 µM | > 100 | > 100 | > 100 µM and 78.4 µM | > 100 | > 100 µM and 62.7 µM | > 100 | > 100 |  |  |  |  |  |  |  | > 100 µM and 22 µM |  | 
10 | CCOC(=O)C(c1ccsc1)P(=O)(OCC)OCC (configuration not stated) |  | 26.8 | 29 | 41 µM | 44.9 | 46.4 µM | 25.7 | 29.4 |  |  |  |  |  |  |  |  |  | 
11 | CC(C)CC1CC2C(=O)N(c3ccccc3)C(=O)C2c2[nH]c3ccccc3c21 (configuration not stated) | > 51.3 µM | > 100 | > 100 | > 40.1 µM | > 100 | 41.8 µM | > 100 | > 100 |  |  |  |  |  |  |  |  |  | 
12 | C=CCN=C1NC(=O)C(CC(=O)Nc2ccc([N+](=O)[O-])cc2[N+](=O)[O-])S1 (configuration not stated) | > 100 µM | > 100 | > 100 | > 100 µM | > 100 | > 100 µM | > 100 | > 100 |  |  |  |  |  |  |  |  |  | 
13 | COC(=O)N1C=CC2=C(C)C3Nc4ccccc4C3C(C)=C2C1 (configuration not stated) | > 100 µM | 11.7 | > 100 | 7.24 µM | 19.8 | 10.1 µM | > 100 | 37.2 |  |  |  |  |  |  |  |  |  | 
14 | CC1(C)CCOC(Sc2ccccc2)C1 (configuration not stated) | > 100 µM | > 100 | > 100 | > 100 µM | > 100 |  | > 100 | 52.9 |  |  |  |  |  |  |  |  |  | 
15 | CCCCCCCCCCCCNC(=S)OCCCC | > 100 µM | > 100 | > 100 | > 100 µM | > 100 | > 100 µM | > 100 | > 100 |  |  |  |  |  |  |  |  |  | 
16 | CC1Nc2ccccc2NC1C=C(C#N)C#N (configuration not stated) |  | 25.1 | 31 | 34.2 µM | 30.2 | 28.4 µM | 30.5 | 32.4 |  |  |  |  |  |  |  |  |  | 
17 | CN1C=C(C(N)=O)Cc2ccsc21 |  | > 100 | > 100 |  | > 100 | > 100 µM | > 100 | > 100 |  |  |  |  |  |  |  |  |  | 
18 | O=C1c2ccccc2C(=O)N1CCN(CCN1C(=O)c2ccccc2C1=O)Cc1ccccc1 | > 100 µM | > 100 | > 100 | > 100 µM | > 100 | > 100 µM | > 100 | > 100 |  |  |  |  |  |  |  |  |  | 
19 | CCOC(=O)c1ccc(N[C@@H]2c3cc4c(cc3C(c3cc(OC)c(O)c(OC)c3)[C@H]3C(=O)OCC32)OCO4)cc1 (some centres not stated) | 1.92 µM | 3.85 | 10.7 | 11.3 µM | 8.02 |  | 9.13 | 2.95 | 0.877 | 0.134 µM and 0.156 µM |  | 0.379 | 5 | > 100 | 20.6 | 0.332 µM | 0.35 | 0.697
